Source: patent publication US11472844B2, “Peptidomimetics, method of synthesis and uses thereof” (priority 2017, dated 2022)
Entries after “also recorded” stand apart in the source; their conditions may differ. *: point of attachment. X1 = CC[N+]1=C(/C=C/C=C/C=C2N(CCCCCC(=O)NCCN3C(=O)CC(*)C3=O)c3ccc(S(=O)(=O)O)cc3C2(C)C)C(C)(C)c2cc(S(=O)(=O)[O-])ccc21

How the values were obtained:
[1] = test system: guinea pig circulating neutrophils; experiment: Labelling of fixed guinea pig neutrophils; assay type: cell-based
Protocol: (§1) Polymorphonuclear neutrophils purification. Human polymorphonuclear neutrophils were purified as described previously (Monceaux et al. 2016). Briefly, plasma was removed by centrifugation (450×g, 15 min); blood cells were resuspended in 0.9% NaCl solution supplemented with 0.72% Dextran. After red blood cells sedimentation, white blood cells were pelleted and further separated on a two layer Percoll (GE Healthcare) (51%−42%) by centrifugation (at 240×g, 20 min). PBMC (top layer) were isolated from polymorphonuclear neutrophils (bottom layer). Red blood cells were removed from the latter fraction using CD235a (glycophorin) microbeads (negative selection) (Miltenyi Biotec). PBMCs and polymorphonuclear neutrophils were resuspended in the autologous plasma. Guinea pig and mouse polymorphonuclear neutrophils were purified with the same procedure.

[2] = test system: neutrophils recruited to mouse colon infected with Shigella sonnei; experiment: Mouse model of shigellosis, staining of fixed colon sections; conditions: 1 μg/ml
Protocol: Mouse. The experimental protocol was approved by the french Ethic Committee Paris (number 20150042). Female 6 week-old BALB/cJRi mice from Charles River were orally gavaged with streptomycin (100 μL of 200 mg/ml solution) 24 hours prior to Shigella sonnei infection. Mice were orally gavaged with 10^10 CFUs S. sonnei carrying pMW211 expressing DsRed and monitored for 24 hours. At the end of the experiment, animals were sacrificed and tissue sections from the colon were extracted. Colon sections were placed in 4% paraformaldehyde (PFA) solution for 2 hours. PFA fixed tissue sections were passaged for 16 hours in 16% sucrose followed by 4 hours in 30% sucrose solutions. Fixed colon slices were embedded in OCT (VWR 361603E) and flash frozen in dry ice chilled 2-methylbutane. Frozen blocks were stored at −80 until sectioning. […] Tissue slices were prepared for fluorescence microscopy by incubation in 0.1% saponin for 1 hour followed by incubation with fluorescent markers specific for actin (phalloidin-FITC, Life Technology) and MUB40-Cy5 at a final 1 μg/ml concentration. […]
Spinning disk microscope. Mouse colons infected with S. sonnei pDsRed were imaged on a Bruker Opterra fluorescence microscope using a Zeiss Plan-Apochromat 63×/1.40 oil immersion lense and Prairie View software version 5.3. […]

[3] = test system: cystic fibrosis (CF) patients sputum; experiment: CF patient sputum immunofluorescent staining; set-up: species or system human; conditions: together with anti-Muc2 and anti-Muc5ac antibodies, 1 μg/mL
Protocol: FIG. 4. CF patient sputum immunofluorescent staining with MUB40-Cy5 (SEQ ID NO: 3), anti-Muc2 and anti-Muc5ac antibodies (with secondary antibodies conjugated with FITC and Rhodamin respectively).
Muc2 was stained with an anti-Mucin2 antibody (green). Muc5ac was stained with an anti-Mucin5ac antibody (red). Tissue was additionally stained with MUB40-Cy5 (1 μg/mL, magenta). DNA was stained with Dapi (blue).

[4] = test system: Peripheral blood mononuclear cells (PBMC); experiment: Fluorescent labelling of PBMC; assay type: cell-based, human; conditions: PBMC fixed in PFA 3%
Text: Antibodies, fluorescent markers. For immunofluorescence assay, lactoferrin was detected with a mouse anti-lactoferrin primary monoclonal antibody (Hycult biotech, clone 265-1K1, 1:50 dilution) and an anti-mouse-FITC conjugated secondary antibody (1:1000). Nuclei were detected with DAPI (Life Technologies), Lyophilized MUB40 peptides (MUB40#1 (SEQ ID NO: 3)-Cy5, MUB40#2 (SEQ ID NO: 4)-Cy5, MUB40#3 (SEQ ID NO: 5)-Cy5, MUB40#4 (SEQ ID NO: 6)-Cy5, MUB40#1 (SEQ ID NO: 3)-Dylight, RI-MUB40 (SEQ ID NO: 2)-Cy5, and RI-MUB40 (SEQ ID NO: 2)-Biotin) were solubilized in a phosphate buffer pH8 at a 1 mg/mL concentration and used at a 1:1000 dilution. For PBMC staining CD19-APC (B lymphocytes), CD3-APC (T lymphocytes), and CD14-PercP (monocytes, macrophages) (BD Bioscience) were used at a 1:1000 dilution together with Dapi (1:1000) and MUB40-Cy5 (1 mg/mL). Actin was stained with Phalloidin-Rhodamine red X (RRX) (Jackson Immunoresearch Antibodies) used at a 1:1000 final dilution.
Polymorphonuclear neutrophils purification. Human polymorphonuclear neutrophils were purified as described previously (Monceaux et al. 2016). Briefly, plasma was removed by centrifugation (450×g, 15 min); blood cells were resuspended in 0.9% NaCl solution supplemented with 0.72% Dextran. […]

[5] = test system: mouse circulating neutrophils; experiment: Labelling of fixed mouse neutrophils; assay type: cell-based
Protocol: as §1

[6] = target: T1, human purified lactoferrin (Homo sapiens, UniProt P02788); experiment: Lactoferrin polymers immunofluorescence labelling; assay type: binding; conditions: PNGase treatment; listed as MUB40-Cy5
T1 construct: purchased Sigma-Aldrich L1294
T1 sequence (P02788 20-710): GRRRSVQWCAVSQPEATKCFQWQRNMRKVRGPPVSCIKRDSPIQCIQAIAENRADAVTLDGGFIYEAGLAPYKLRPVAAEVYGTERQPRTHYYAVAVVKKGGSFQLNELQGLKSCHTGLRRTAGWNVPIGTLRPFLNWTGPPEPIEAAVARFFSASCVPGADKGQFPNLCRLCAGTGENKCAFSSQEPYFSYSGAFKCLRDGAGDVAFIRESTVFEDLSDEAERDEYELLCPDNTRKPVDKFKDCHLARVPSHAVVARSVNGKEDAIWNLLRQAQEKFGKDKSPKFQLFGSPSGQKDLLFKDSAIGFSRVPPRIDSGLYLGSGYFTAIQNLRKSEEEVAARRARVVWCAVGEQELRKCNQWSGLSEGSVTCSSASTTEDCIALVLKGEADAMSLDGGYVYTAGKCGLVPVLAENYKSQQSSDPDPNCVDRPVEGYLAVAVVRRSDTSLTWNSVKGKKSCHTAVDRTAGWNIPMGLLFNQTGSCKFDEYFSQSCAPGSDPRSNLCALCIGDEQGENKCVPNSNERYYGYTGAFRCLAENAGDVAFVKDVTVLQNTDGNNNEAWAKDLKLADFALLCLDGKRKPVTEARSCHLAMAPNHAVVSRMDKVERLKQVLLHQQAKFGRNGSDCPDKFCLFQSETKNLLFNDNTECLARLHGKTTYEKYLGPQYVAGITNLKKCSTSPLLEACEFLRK
Protocol: Lactoferrin polymerization. Human purified lactoferrin (ref: L1294, Sigma-Aldrich) was resuspended in deionized H2O (35 μg/mL). Lactoferrin was incubated in RPMI+10 mM Hepes supplemented with 10 mM FeCl3, at indicated concentrations (0.35 or 3.5 μg/mL) onto 24-well plates containing 12 mm coverslips overnight at 37° C., adapted from similar lactoferrin polymerization experiments performed in iron saturated phosphate buffer (Mantel et al. 1994).
Lactoferrin deglycolysation. About 10 μg of human purified lactoferrin (ref: L1294, Sigma-Aldrich) was treated by Peptide-N-Glycosidase F (PNGaseF, New England Biolabs, Ipswich Mass., USA) for N-deglycosylation. Protein was treated exactly as described in manufacturer protocol. Twelve unit of PNGase F were added for 4 h at 37° C. for the removal of N-glycosylation.
Lactoferrin polymers interaction with MUB40-Cy5. Lactoferrin polymers were centrifuged at 2000 rpm for 10 min and fixed in Paraformaldehyde (PFA) 4% for one hour. Lactoferrin polymers were immunolabeled in PBS+0.1% saponin (Sigma-Aldrich) with a mouse anti-lactoferrin primary monoclonal antibody (Hycult biotech, clone 265-1K1, 1:50 dilution) and an anti-mouse-FITC conjugated secondary antibody (1:1000), together with MUB40-Cy5 (SEQ ID NO: 3) (1 μg/mL). Slides were washed three times in PBS and three times in deionized H2O and mounted with prolong gold^tm mounting media.

[7] = test system: recruited neutrophils and secreted lactoferrin; experiment: Labelling of human inflamed tissue biopsies; conditions: malignant fibrous histiocytoma and streptococcal skin abscess biopsies, 1 μg/mL
Text: Human inflammatory tissues. Human biopsies from patients diagnosed for malignant fibrous histiocytoma and for a streptococcal skin abscess were collected and processed at the Kremlin Bicêtre Hospital, Anatomy and Pathological Histology Department. Tissue samples were fixed in formaldehyde and further embedded in paraffin. 10 μm sections were obtained using a microtome (Leica Biosystem). Tissues were labeled with a mouse anti-lactoferrin primary monoclonal antibody (Hycult biotech, clone 265-1K1, 1:50 dilution), MUB40-Cy5 (SEQ ID NO: 3) (1 μg/mL), and Dapi (1:1000 dilution) as described below.

**Q.** Which results are given for “Ac-C(X1)TAEGIKKFEGDGYELFKDNFPAGEKFDNDDTNDQFYTVIF-NH2 [Cy5-MUB40#1]”?
**A.** labelling of neutrophils [1]: efficiently labeled; labelling of recruited neutrophils [2]: specifically labeled; labelling of CF patients sputum [3]: labeled; staining of CD3+, CD14+ and CD19+ cells [4]: not stained; labelling of neutrophils [5]: efficiently labeled; labelling of deglycosylated lactoferrin [6]: no longer labelled; also recorded: abolished; labelling of recruited neutrophils and secreted lactoferrin [7]: labeled
